Three molecules from patent publication US6221864A, “Prophylactic or therapeutic agent for diseases attributable to infection with helicobacters” (priority 1997, dated 2001) can be followed below.

Converted amounts (≈) assume the structure as drawn.

The test system of assay [1] is H. pylori. The assay is described as follows: MIC given in Table 1 beside eradication in H. pylori-infected Mongolian gerbils. It is filed as cell-based. The following applies: Helicobacter pylori. The procedure:
Clinically isolated strains (18 strains) were cultured using 5% horse serum under microaerophilic conditions at 37° C. for 72 hours and diluted with Brucella broth to give a bacterial solution at about 10^6 cells/ml. The diluted bacterial solution was inoculated with a microplanter on an agar plate containing 2-fold dilution concentration series of test compound and cultured under 8% CO2 at 37° C. for 3 to 4 days. Thereafter, the minimum growth inhibitory concentration (MIC) was measured. MIC50 (minimum concentration to inhibit growth in 50% of the test strains) and MIC90 (minimum concentration to inhibit growth in 90% of the test strains) were calculated from the obtained values. To a male 7-week-old Mongolian gerbil after fasting for about 20 hours, was inoculated orally a culture broth of H. pylori ATCC 43504 Type strain upon 24 hours of culture. After administration of the culture broth, the Mongolian gerbil was fasted and deprived of water for about 4 hours, after which a normal solid feed and drinking water were given to Mongolian gerbils infected with H. pylori. Starting from 6 weeks after infection, the drug was orally administered twice a day for 7 days. […] The medium was incubated under CO2 and the colonies of H. pylori were counted. A case where colonies were not detected was evaluated as the case of bacterial eradication.

The test system of assay [2] is H. pylori ATCC 43504 Type strain. The assay is described as follows: Bacterial eradication in H. pylori-infected Mongolian gerbils, drug orally twice a day for 7 days. As to conditions: bid, oral. It counts as in vivo, Mongolian gerbil. The procedure:
To a male 7-week-old Mongolian gerbil after fasting for about 20 hours, was inoculated orally a culture broth of H. pylori ATCC 43504 Type strain upon 24 hours of culture. After administration of the culture broth, the Mongolian gerbil was fasted and deprived of water for about 4 hours, after which a normal solid feed and drinking water were given to Mongolian gerbils infected with H. pylori. Starting from 6 weeks after infection, the drug was orally administered twice a day for 7 days. After completion of the drug administration, Mongolian gerbils were sacrificed at day 3. The stomach was excised and incised along greater curvature, and its content was removed. The stomach was homogenized in 10 ml of phosphate buffer--physiological saline in a homogenizer. The homogenate was appropriately diluted with the same buffer and 0.1 ml of sample was plated onto H. pylori selective medium. The medium was incubated under CO2 and the colonies of H. pylori were counted. A case where colonies were not detected was evaluated as the case of bacterial eradication.

Assay [3] shares this test system. The experiment in a line: Bacterial eradication in H. pylori-infected Mongolian gerbils, alone or combined with famotidine, twice a day for 3 days. It counts as in vivo, Mongolian gerbil. As to conditions: bid. The procedure: To a male 7-week-old Mongolian gerbil after fasting for about 20 hours, was inoculated orally a culture broth of H. pylori ATCC 43504 Type strain upon 24 hours of culture. After administration of the culture broth, the Mongolian gerbil was fasted and deprived of water for about 4 hours, after which a normal solid feed and drinking water were given to Mongolian gerbils infected with H. pylori. Starting from 6 weeks after infection, the compound of the present invention and famotidine which is a histamine H2 antagonist were administered alone or in combination twice a day for 3 days. The compound of the present invention was administered orally and famotidine was subcutaneously administered immediately before administration of the compound of the present invention. After completion of the drug administration, Mongolian gerbils were sacrificed at day 3. The stomach was excised and incised along greater curvature and its content was removed. The stomach was homogenized in 10 ml of phosphate buffer--physiological saline. […] The medium was incubated under CO2 and the colonies of H. pylori were counted. A case where colonies were not detected was evaluated as the case of bacterial eradication. As a control, phosphate buffer--physiological saline was used.

Assay [4] concerns H. pylori clinically isolated strains (18 strains). The experiment in a line: In vitro antibacterial activity against H. pylori clinically isolated strains (agar dilution MIC). It counts as cell-based. The following applies: Helicobacter pylori, 18 clinically isolated strains, agar plate, 8% CO2, 37° C., 3 to 4 days. The method, then: Clinically isolated strains (18 strains) were cultured using 5% horse serum under microaerophilic conditions at 37° C. for 72 hours and diluted with Brucella broth to give a bacterial solution at about 10^6 cells/ml. The diluted bacterial solution was inoculated with a microplanter on an agar plate containing 2-fold dilution concentration series of test compound and cultured under 8% CO2 at 37° C. for 3 to 4 days. Thereafter, the minimum growth inhibitory concentration (MIC) was measured. MIC50 (minimum concentration to inhibit growth in 50% of the test strains) and MIC90 (minimum concentration to inhibit growth in 90% of the test strains) were calculated from the obtained values.
On the technique in general: In agar dilution the substance is mixed into plates at graded concentrations.

What is called MIC is the lowest concentration that inhibits growth of the organism. `CC1(C)S[C@@H]2[C@H](NC(=O)[C@H](N)c3ccc(O)cc3)C(=O)N2[C@H]1C(=O)O` [amoxicillin, reference compound]: in assay [1], inhibition of growth (MIC) required 0.025 µg/mL (≈ 0.0684 µM). Further, the Eradication rate was found to be 0% in assay [2] (3.0 mg/kg) and 100% in assay [2] (10.0 mg/kg).
On to `NC(N)=Nc1nc(CSCCC(N)=NS(N)(=O)=O)cs1` [famotidine, reference compound], for which the Eradication rate in assay [3] (100 mg/kg, subcutaneous) is recorded as 0%.
As for `COc1c(N2CCO[C@@H](CN(C)C)C2)c(F)cc2c(=O)c(C(=O)O)cn(C3CC3)c12` [Y-34867, (S)-1-cyclopropyl-1,4-dihydro-7-[2-(N,N-dimethylaminomethyl)morpholino]-6-fluoro-8-methoxy-4-oxoquinoline-3-carboxylic acid], the MIC50 in assay [4] (read-out: MIC50 (minimum concentration to inhibit growth in 50% of the test strains)) is 0.025 µg/mL (≈ 0.0596 µM). The MIC90 in assay [4] (read-out: MIC90 (minimum concentration to inhibit growth in 90% of the test strains)) amounted to 0.05 µg/mL (≈ 0.119 µM). Further, the MIC in assay [1] was found to be 0.025 µg/mL (≈ 0.0596 µM). Further, the Eradication rate was determined as 0% in assay [2] (0.3 mg/kg); 80% in assay [2] (1.0 mg/kg); 100% in assay [2] (3.0 mg/kg); 0% in assay [3] (0.3 mg/kg, oral); 60% in assay [3] (1.0 mg/kg, oral); 100% in assay [3] (3.0 mg/kg, oral). For the same molecule, the “bacterial eradication of H. pylori (in words)” value in assay [2] is given as “evident bacterial eradication of H. pylori”. The “visual and histopathological repair of inflammatory state” value in assay [2] and in assay [3] was “promoted” in each case. The “bacterial eradication effect when concurrently administered with famotidine (in words)” value in assay [3] (with famotidine subcutaneous) is recorded as “the effect is enforced”. Moreover, in assay [3] (without famotidine), the “bacterial eradication effect by single administration (in words)” value is on record as “superior bacterial eradication effect”.
